Here are results for one compound from patent US8648215B2, “Spiroenone and uses thereof” (Joben Bio-Medical Co., Ltd., priority 2012, dated 2014).

For this assay, the system named is MCF-7 cells. Kind of assay: MTT assay for antiproliferation, MCF-7 cells. The format is cell-based. The settings on record: Homo sapiens, MCF7, 24 h, read-out: percentage of inhibition. As for the experimental part:
Cell Lines and Culture. MCF-7, T-47D, and H184B5F5/M10 cells were cultured with 5% CO2 atmosphere at 37° C.; MDA-MB-231 cells were cultured without CO2 at 37° C. The MCF-7 cells were cultured in MEM containing 10% heat-inactivated FBS, 100 units/mL penicillin, 100 μg/mL streptomycin, and 1 mM sodium pyruvate. The T-47D cells were maintained in RPMI-1640 medium containing 10% heat inactivated FBS, 100 units/mL penicillin, and 100 μg/mL streptomycin. […]
Assay for Antiproliferation. To determine the antiproliferative effect, MCF-7, T-47D, MDA-MB-231, or H184B5F5/M10 cells were assessed using the MTT assay as previously reported (Ho, C. Y.; Kim, C. F.; Leung, K. N.; Fung, K. P.; Tse, T. F.; Chan, H.; Lau, C. B. Differential anti-tumor activity of Coriolus versicolor (Yunzhi) extract through p53- and/or Bcl-2-dependent apoptotic pathway in human breast cancer cells. Cancer Biol. Ther. 2005, 4, e11-e17). […] The absorbance at 570 nm was measured, and the viability of cells was calculated using the following equation: relative cell number (%)=(average absorbance of treated wells)×100/(average absorbance of blank vehicle wells).
(Tetrazolium assays rely on reduction of a dye to a coloured formazan, in cell work by metabolically active cells.)

By inhibition is commonly meant the relative decrease from the control value, in per cent. In the case of `COC1=C(C)CC2(CC1)C(C)=CC(=O)C=C2C` [compound 3, coixspiroenone], the inhibition at 50 µM came out at 19.2%.
